{
  "source": "patent US20070015813A1",
  "about": "“Treatment of protein folding disorders” (QUEEN'S UNIVERSITY AT KINGSTON, priority 2005, published 2007)",
  "key": {"Aβ1-40 [1]": {"molecular_target": "T1, Aβ1-40 (Homo sapiens, UniProt P05067)", "T1 construct": "Aβ^1-40 (AnaSpec, San Jose, Calif., lots 14212, 34862 and 34889); purchased AnaSpec, San Jose, Calif", "T1 sequence (P05067 672-711 limits assumed)": "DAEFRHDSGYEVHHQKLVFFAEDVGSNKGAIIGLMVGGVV", "experiment": "Circular dichroism studies of Aβ1-40", "type": "biochemical", "settings": "40 μM Aβ1-40, 200 μM compound, pH 7.4, 37° C.", "description": "Aliquots (220 μL) of pretreated Aβ^1-40 (40 μM in 20 mM Tris-HCl, pH 7.4) were added directly to 1 mm quartz circular dichroism (CD) cells, followed by 2.2 μL compound (of varying concentration) in methanol or methanol alone (controls). Solutions were incubated at 37° C. for up to 6 days. CD scans were performed on a J-810 spectropolarimeter (obtained from Jasco Corporation, Tokyo, Japan) between 190 and 250 nm, with a resolution of 0.1 nm and bandwidth of 1 nm. Ten scans were obtained for each reading. Spectra had background CD of the buffer subtracted and were left unsmoothed. Readings were performed at 37° C.\nFIG. 6 depicts circular dichroism (CD) of Aβ^1-40 alone (A) and in the presence of 0j (B) and morin (C). Conditions: 40 μM Aβ^1-40, 200 μM compound (B,C), pH 7.4, Tris-HCl (20 mM), 1% MeOH. Prior to experiment, Aβ^1-40 pretreated with 1,1,1,3,3,3-hexafluoroisopropanol (HFIP)."}, "Aβ1-40 [2]": {"molecular_target": "T1, Aβ1-40", "experiment": "1H NMR binding of bi-aromatics to Aβ1-40", "settings": "100 μM Aβ1-40, 50 μM compound, D2O, 27° C.", "description": "Aβ^1-40 was dissolved in HFIP (1 mL) and sonicated (20 min) to disassemble any pre-formed aggregates. The HFIP was removed with a stream of Ar(g) and the waxy residue dissolved in 2.2 mL buffer (Tris-d11, 20 mM in D2O). Incubations (0.500 mL) were made directly in thin-walled NMR tubes, to which were added compound (2.5 μL, 10 mM in DMSO-d6) or vehicle. An identical incubation lacking Aβ^1-40 was used as compound reference. Spectra were obtained for Aβ^1-40 alone (100 μM), compound alone (50 μM) and for a mixture of both (100 μM Aβ^1-40, 50 μM compound). Spectra were recorded at 500 MHz and 27° C. (300K), with 674 scans obtained for each.\nFIG. 9 depicts ^1H NMR spectra identifying binding of 5-bromo-5′-carboxy-3,3′-bis-indolyl (0c) to Aβ^1-40. Spectra were obtained for Aβ^1-40 alone (100 μM, A), compound alone (50 μM, C) and for a mixture of both (100 μM Aβ^1-40, 50 μM compound, B). Spectra were recorded at 500 MHz and 27° C. (300K) in D2O containing 1% DMSO-d6, and 674 scans were obtained for each."}, "Aβ1-42": {"molecular_target": "T2, Aβ1-42 (Homo sapiens, UniProt P05067)", "T2 construct": "Aβ^1-42 (AnaSpec, lot 45685); purchased AnaSpec", "T2 sequence (P05067 672-713 limits assumed)": "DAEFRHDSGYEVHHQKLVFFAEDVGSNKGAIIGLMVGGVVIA", "experiment": "Kinetic Thioflavin T (ThT) aggregation assay of Aβ1-42", "type": "biochemical", "settings": "20 μM Aβ1-42, kinetic ThT assay", "description": "Aβ^1-42 (1.0 mg) was either pretreated with HFIP in the same manner as Aβ^1-40 or this step was omitted. After removing HFIP, when appropriate, Aβ^1-42 was dissolved in 1% NH3 (aq.) (200 μL) and sonicated for 1 min. The solution was diluted with Tris-HCl (5.7 mL, 20 mM, pH 7.4), the pH adjusted to 7.4 with concentrated HCl (aq.) and the solution filtered using a syringe filter (0.2 μm). Prior to use in the ThT aggregation assay, the solution was diluted with an equal volume of 8 μM Thioflavin T (ThT) in Tris-HCl (20 mM, pH 7.4, 300 mM NaCl).\nAliquots (200 μL) of Aβ^1-40, Aβ^1-42, tau441 or α-synuclein with ThT or ThS were added to wells of a black polystyrene 96-well plate, followed by 2 μL of a compound in DMSO (various concentrations), or DMSO alone (controls). For α-synuclein, sodium dodecyl sulfate solution (2.0 μL, 30 mM) was also added to each well to induce aggregation. Incubations were performed in triplicate and were taken to contain 20 μM Aβ^1-40 or Aβ^1-42, 6 μM tau441 or 4 μM α-synuclein. Plates were covered with clear polystyrene lids and incubated at 37° C. in a GENios microplate reader obtained from Tecan Group Limited, Mannedorf, Zurich. For Aβ^1-40, tau441 and α-synuclein, fluorescence readings (λex=450 nm, λem=480 nm) were taken every 15 min., after first shaking at high intensity for 15 sec. and allowing to settle for 10 sec. before each reading. For Aβ^1-42, readings were taken every 5 min.\nThe absorbance of each compound was measured under the conditions used during testing, though on ten times the scale (2 mL), to ensure no significant quenching interfered with the assay. This step was also used to identify whether compounds were completely soluble under testing conditions.\nFIG. 7 depicts inhibition of Aβ^1-42 aggregation by various synthesized bi-aromatic compounds and positive controls morin (Ono K, Yoshiike Y, Takashima A, Hasegawa K, Naiki H, Yamada M. 2003. J Neurochem 87:172-81) and RS-0406 (Walsh D M, Townsend M, Podlisny M B, Shankar G M, Fadeeva J V, Agnaf O E, Hartley D M, Selkoe D J. 2005. J Neurosci 25:2455-62) in the kinetic ThT assay. Same conditions as for Aβ^1-40, FIG. 1. Compound concentrations were 100 μM in (A), 20 μM in (B), except for RS-0406, which was tested at 100 μM, and 20 μM in (C)."}},
  "data": [
    {"smiles": "O=C(O)c1ccc2[nH]cc(-c3c[nH]c4ccc(Br)cc34)c2c1", "note": "[0c, 3-(5-bromo-indol-3-yl)-indole-5-carboxylic Acid]", "values": [
      {"measurement": "random coil (RC)→β-sheet transition of Aβ1-40 by circular dichroism", "setting": "Aβ1-40 [1]", "result": "this transition was inhibited"},
      {"measurement": "binding to Aβ1-40 by 1H NMR (signal broadening)", "setting": "Aβ1-40 [2]", "result": "binding"}
    ]},
    {"smiles": "O=c1c(O)c(-c2ccc(O)cc2O)oc2cc(O)cc(O)c12", "note": "[morin]", "values": [
      {"measurement": "inhibition of Aβ1-42 aggregation, as measured by ThT fluorescence", "setting": "Aβ1-42", "result": "inhibition"}
    ]}
  ]
}
